For the assay, the system named is human sebocytes. Description: Sebum suppression: 14C-acetate incorporation in cultured human sebocytes, test agent alone or with retinol. In kind it is cell-based. As to conditions: for activity at 1 µM / activity at 10 µM: read-out: % of Control. As for the experimental part:
Compounds A through H were tested for their potential to suppress sebum expression, alone or in the presence of a retinoid.
Secondary cultures of human sebocytes obtained from an adult […] were grown in 48-well tissue culture plates (Costar Corp.; Cambridge, Mass.) or 96-well tissue culture plates (Packard Co.; Meriden, Conn.) until confluent. Sebocyte growth medium consisted of Clonetics Keratinocyte Basal Medium (KBM) supplemented with 14 μg/ml bovine pituitary extract, 0.4 μg/ml hydrocortisone, 5 μg/ml insulin, 10 ng/ml epidermal growth factor, 1.2×10−10 M cholera toxin, 100 units/ml penicillin, and 100 μg/ml streptomycin. All cultures were incubated at 37° C. in the presence of 7.5% CO2. Medium was changed three times per week.
On the day of experimentation, the growth medium was removed and the sebocytes washed three times with sterile Dulbecco's Modified Eagle Medium (DMEM; phenol red free). Fresh DMEM was added to each sample (duplicates, triplicates, or quadruplicates depending on the experiment) with 5 microliter of test agent solubilized in ethanol either alone or in the presence of one or 10 micromolar of retinol. Controls consisted of addition of ethanol alone, retinol alone, or phenol red, which has estrogen-like activity and is included as a positive control.
Each plate was returned to the incubator for 20 hours followed by the addition of 14C-acetate buffer (5 mM final concentration, 56 mCi/mmol specific activity). Sebocytes were returned to the incubator for four hours after which each culture was rinsed three times with phosphate buffered saline to remove unbound label. Radioactive label remaining in the sebocytes was harvested and counted using a Beckman scintillation counter.

Setting [1] is: Homo sapiens, 1 μM test compound + 1 μM Retinol.
[2] abbreviates: Homo sapiens, 1 μM test compound + 10 μM Retinol.
[3] abbreviates: Homo sapiens, 1 μM test compound alone.
Setting [4] is: Homo sapiens, 10 μM test compound + 1 μM Retinol.
[5] abbreviates: Homo sapiens, 10 μM test compound + 10 μM Retinol.
[6] abbreviates: Homo sapiens, 10 μM test compound alone.
The mark [7] stands for this setting: 10 μM test compound + 10 μM Retinol.

Values joined by “and” are separate entries in the source; they are usually repeats but may differ in a detail not shown here. Equal entries are not always repeated. Where two headings read alike, the source gives them in different places.

On to `CCCN(CCO)C(=O)CC1c2ccccc2-c2ccccc21` [Compound H], for which the activity at 1 µM reads like this: under setting [1], 76.8%; under setting [2], 68%; under setting [3], 65.9%. Also, the activity at 10 µM under setting [4] amounted to 71%, the activity at 10 µM under setting [5] was 73.5% and the activity at 10 µM under setting [6] was 71.1%.

With `O=S1(=O)OC(c2ccc(O)cc2)(c2ccc(O)cc2)c2ccccc21` [Phenol Red, phenol red, reference compound], the “% of Control” value (28 μM Phenol Red (positive control)) came out at 84.4%. Further, the activity at 28 µM (Homo sapiens, 28 μM Phenol Red (positive control)) was determined as 67.6%.

As to `CC1=C(/C=C/C(C)=C/C=C/C(C)=C/CO)C(C)(C)CCC1` [Retinol, retinol, reference compound], the “% of Control” value runs as follows: (1 μM Retinol alone) 98.4% and 99.9% and 85.5% and 99.3%; (10 μM Retinol alone) 101.8% and 111.7% and 100.1% and 81.8% and 104.8% and 95.2%. Moreover, under “alone, summary in words”, the sebum suppressive activity entry is “inactive”.

Regarding `O=C(CC1c2ccccc2-c2ccccc21)N1CCC(O)(c2ccc(Cl)cc2)CC1` [Compound F], the “% of Control” value (10 μM test compound alone) is 26.7% and 75.0%. The activity at 1 µM reads like this: under setting [1], 35.7%; under setting [2], 29.3%. In addition, under setting [4], the activity at 10 µM came out at 15.3%.

Take `Cc1c(Cl)cccc1NC(=O)N1c2ccccc2CCc2ccccc21` [Compound D]: the “% of Control” value (100 μM test compound + 1 μM Retinol) is recorded as 1.1%, the “% of Control” value (100 μM test compound + 10 μM Retinol) is reported as 0.5% and the “% of Control” value (100 μM test compound alone) came to 1.8%. Besides, the activity at 1 µM under setting [1] was 75.4%, the activity at 1 µM under setting [2] came to 74.3% and the activity at 1 µM under setting [3] stood at 80.1%. The activity at 10 µM under setting [4] is 105%, the activity at 10 µM under setting [5] was found to be 88.7% and the activity at 10 µM under setting [6] was 101%.

Regarding `O=C(Nc1ccc(OC(F)(F)F)cc1)N1c2ccccc2CCc2ccccc21` [Compound B], the activity at 1 µM is, setting by setting: under setting [1], 86%; under setting [2], 74.2%; under setting [3], 88.9%. Besides, the activity at 10 µM came out at 96% under setting [4], 111% under setting [5] and 82% under setting [6].

For the compound `O=C(Nc1ccc(O)cc1)N1c2ccccc2CCc2ccccc21` [Compound C], the activity at 1 µM is 83.7% under setting [1], 70.3% under setting [2] and 91.4% under setting [3]. For the same compound, the activity at 10 µM is, setting by setting: under setting [4], 27.5%; under setting [5], 1.4%; under setting [6], 41.5%. Further, the “sebum suppressive activity when combined with retinol” value (in the presence of retinol / a retinoid, summary in words) is on record as “improved activity”.

With `O=C(CC1c2ccccc2-c2ccccc21)N1CCC(O)(c2ccccc2)CC1` [Compound G], the “% of Control” value runs as follows: (1 μM test compound + 10 μM Retinol) 80.2% and 102.9%; (1 μM test compound alone, 1 µM) 77.3% and 105.2%; under setting [7], 75.4%. Moreover, the activity at 1 µM under setting [1] worked out at 114%. Moreover, the activity at 10 µM by setting is: under setting [4], 65.3%; under setting [5], 63.8%; under setting [6], 63%.

In the case of `CC(O)c1cccc(NC(=O)N2c3ccccc3CCc3ccccc32)c1` (stereo not drawn) [Compound A], the “% of Control” value was 86.2% (1 μM test compound + 1 μM Retinol); 85.8% and 45.9% (10 μM test compound + 1 μM Retinol); 80.1% and 44.3% under setting [7]; 88.8% (10 μM test compound alone, 10 µM).

These data come from patent US6355687B1, “Cosmetic compositions containing substituted iminodibenzyl or fluorene derivatives” (Unilever Home and Personal Care USA, division of Conopco, …, priority 2000, dated 2002).
